Literature values, collected in patent US20220280561A1, “COPPER-ATSM FOR TREATING NEURODEGENERATIVE DISORDERS ASSOCITED WITH MITOCHONDRIAL DYSFUNCTION” (RESEARCH INSTITUTE AT NATIONWIDE CHILDREN'S HOSPITAL, priority 2019, published 2022).

System: ALS
Conditions: ALS patients; cited from earlier work

Row | Structure (SMILES) | patient quality of life | lifespan
1 | CC1=NN(c2ccccc2)C(=O)C1 [Edaravone] | significant impact on patient quality of life | –
2 | Nc1nc2ccc(OC(F)(F)F)cc2s1 [Riluzole] | – | modestly extending lifespan
